Measurements published in US20110098325A1, “PYRIDINE BENZAMIDES AND PYRAZINE BENZAMIDES USED AS PKD INHIBITORS” (CANCER RESEARCH TECHNOLOGY LIMITED, priority 2006, published 2011).

biological target: T1, Murine PKD1 kinase domain (Mus musculus, UniProt Q62101); assay: PKD1 (Murine Kinase Domain) Enzyme Activity Assay (IMAP fluorescence polarisation); format: biochemical; details: 10 μM ATP, 60 minutes, room temperature
T1 construct: hexahistidine (pFastBac HTb leader) (N); made in house; host or cells: Sf9 insect cells, baculovirus (Bac-to-Bac HT, pFastBac HTb)
T1 sequence (Q62101 with tags, fused parts or gaps R683W): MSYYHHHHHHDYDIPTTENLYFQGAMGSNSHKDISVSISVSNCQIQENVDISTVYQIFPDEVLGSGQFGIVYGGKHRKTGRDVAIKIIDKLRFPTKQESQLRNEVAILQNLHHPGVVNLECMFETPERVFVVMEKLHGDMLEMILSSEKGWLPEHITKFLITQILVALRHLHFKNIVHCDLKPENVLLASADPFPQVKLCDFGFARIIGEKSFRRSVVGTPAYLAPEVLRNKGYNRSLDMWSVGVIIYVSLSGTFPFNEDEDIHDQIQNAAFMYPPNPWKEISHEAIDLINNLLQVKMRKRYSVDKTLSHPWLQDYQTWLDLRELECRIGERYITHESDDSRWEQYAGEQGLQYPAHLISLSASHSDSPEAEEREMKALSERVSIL
Source text: The DNA sequence corresponding to murine PKD1 (see FIG. 1) was inserted into pFastBAc Htb (Invitrogen, USA) at BamH1 and EcoR1 sites using standard molecular biology techniques.
The PKD1 described above was expressed as a hexahistidine tagged protein construct using a commercially available baculoviral expression system that induces protein production in insect cell culture (Bac-to-Bac® HT Baculovirus Expression System, Invitrogen). Protein was typically expressed by inoculating 1 L of sf9 cells with a genetically modified baculovirus containing the gene for the kinase domain of PKD1. Sf9 cells were obtained from ICR Ltd.
Purification of PKD1 was achieved by standard chromatographic procedures. Capture from crude centrifuged lysed cell supernatant was achieved using metal affinity chromatography (GE Healthcare Life Sciences, HiTrap Chelating chromatography column), and fractions showing PKD1 (as assessed by gel electrophoresis and western blot) were further purified by a single polish purification step performed using a mono Q anion exchange chromatography system (GE Healthcare Life Sciences, HiTrap HP Q column). […] This protocol describes the method for screening compounds as inhibitors of Protein Kinase D activity in a 384 well microplate format fluorescence polarisation IMAP assay performed using the Biomek FX.
Kinase Enzyme: Murine PKD1 kinase domain at ˜100 μg/mL, was purified from baculovirus (as described above), obtained from aliquots stored at −70° C. PKD was prepared with a final concentration of 0.1 μg/mL by diluting 1:300 in Reaction Buffer (30 μL per 9 mL-5 mL per plate with an additional 4 mL dead volume) and vortexing prior to use. It was necessary to check this concentration regularly in case of enzyme degradation.
(also known as MAPKAP K2 substrate) was obtained from Molecular Devices (Product code R7127). It was used at 300 nM by diluting 20 μM stock 1:66 in Kinase/Reaction Buffer (135 μL per 9 mL; 75 μL per 5 mL Reaction Buffer for blank wells requiring <1 mL per place with an additional 4 mL dead volume).
A 1 mM ATP stock in Reaction Buffer was prepared from a 10 mM stock in 20 mM NaOH and stored as aliquots at −70° C. It was used at 40 μM by diluting 1 mM stock 1:25 in Reaction Buffer (240 μL per 6 mL-2 mL per plate with an additional 4 mL dead volume) and vortexing prior to use.
IMAP Reagents: IMAP Binding Reagent (product code R7207) and Binding Buffer (product code R7208) were obtained from Molecular Devices and stored at +4° C. The beads were gently re-suspended before diluting by 1:400 in buffer (Binding Buffer is supplied as a 5× stock and so was diluted with water prior to use) and then vortexing before addition to wells. 16 mL water with 4 mL Binding Buffer and 50 μL Binding Reagent were used per plate (17 mL per plate with an additional 3 mL dead volume).
13 μL Substrate in Reaction Buffer was added to ‘blank’ wells to give 200 nM reaction concentration. […] 2 μL 10% DMSO/water was added to ‘blank’ and ‘control’ wells. 5 μL ATP in Reaction Buffer was added to all wells to give 10 μM reaction concentration. The reaction mixture was then incubated at room temperature for 60 minutes. The incubation period was followed by the addition of 40 μL IMAP Binding Reagent in Binding Buffer to all wells. The reaction was then further incubated at room temperature for […].
Percentage inhibition was calculated based on activity of the test sample minus the average values in the blank wells relative to the average values measured in control wells minus the average values in the blank wells.
IC50 values were calculated from 10 point dose sigmoid ‘dose-response’ curves using Xlfit software (IDBS inc, USA). Data were fitted to a 4 parameter logistic model/sigmoidal dose response:
where: A=fit minimum (locked to 0); B=fit maximum (locked to 100); C=fit midpoint (pre-fit to 1); D=slope at linear portion of curve, hillslope (pre-fit to 0.1)

| IC50 [µM] | SMILES |
| --- | --- |
| < 1 | COc1cc(-c2cc(-c3cccc(C(N)=O)c3)cnc2N)ccc1O [Y-001, 3-[6-Amino-5-(4-hydroxy-3-methoxy-phenyl)-pyridin-3-yl]-benzamide] |
| 1 to 10 | COc1ccccc1-c1cc(-c2cccc(C(N)=O)c2)cnc1N [Y-002, 3-[6-Amino-5-(2-methoxy-phenyl)-pyridin-3-yl] benzamide] |
| 1 to 10 | COc1ccccc1-c1cc(-c2cccc(C(=O)N3CCN(C)CC3)c2)cnc1N [Y-003, {3-[6-Amino-5-(2-methoxy-phenyl)-pyridin-3-yl]-phenyl}-(4-methyl-piperazin-1-yl)-methanone] |
| 1 to 10 | COc1cc(-c2cc(-c3cccc(C(=O)N4CCN(C)CC4)c3)cnc2N)ccc1O [Y-004, {3-[6-Amino-5-(4-hydroxy-3-methoxy-phenyl)-pyridin-3-yl]-phenyl}-(4-methyl-piperazin-1-yl)-methanone] |
| < 1 | COc1cc(-c2cc(-c3cccc(C(=O)NCCN(C)C)c3)cnc2N)ccn1 [Y-005, 3-(2-Amino-2′-methoxy-[3,4′]bipyridinyl-5-yl)-N-(2-dimethylamino-ethyl)-benzamide] |
| 1 to 10 | CN(C)CCNC(=O)c1cccc(-c2cnc(N)c(-c3ccc(Cl)nc3)c2)c1 [Y-006, 3-(2-Amino-6′-chloro-[3,3′]bipyridinyl-5-yl)-N-(2-dimethylamino-ethyl)-benzamide] |
| < 1 | CN(C)CCNC(=O)c1cccc(-c2cnc(N)c(-c3ccc(O)nc3)c2)c1 [Y-007, 3-(2-Amino-6′-hydroxy-[3,3′]bipyridinyl-5-yl)-N-(2-dimethylamino-ethyl)-benzamide] |
| 1 to 10 | COc1ccc(-c2cc(-c3cccc(C(=O)NCCN(C)C)c3)cnc2N)cn1 [Y-008, 3-(2-Amino-6′-methoxy-[3,3′]bipyridinyl-5-yl)-N-(2-dimethylamino-ethyl)-benzamide] |
| < 1 | CN(C)CCNC(=O)c1cccc(-c2cnc(N)c(-c3ccc4c(c3)OCO4)c2)c1 [Y-010, 3-(6-Amino-5-benzo[1,3]dioxol-5-yl-pyridin-3-yl)-N-(2-dimethylamino-ethyl)-benzamide] |

Second part, the compound before the results:

| SMILES | IC50 [µM] |
| --- | --- |
| COc1cccc(-c2cncc(-c3cccc(C(=O)NCCCN(C)C)c3)n2)c1 [X-001, N-(3-Dimethylamino-propyl)-3-[6-(3-methoxy-phenyl)-pyrazin-2-yl]-benzamide] | 1 to 10 |
| COc1ccccc1-c1cncc(-c2cccc(C(=O)NCCN(C)C)c2)n1 [X-002, N-(2-Dimethylamino-ethyl)-3-[6-(2-methoxy-phenyl)-pyrazin-2-yl]-benzamide] | 1 to 10 |
| COc1cc(-c2cncc(-c3cccc(C(=O)NCCN(C)C)c3)n2)cc(OC)c1OC [X-003, N-(2-Dimethylamino-ethyl)-3-[6-(3,4,5-trimethoxy-phenyl)-pyrazin-2-yl]-benzamide] | 1 to 10 |
| CN(C)CCCNC(=O)c1cccc(-c2cncc(-c3ccc(O)cc3)n2)c1 [X-004, N-(3-Dimethylamino-propyl)-3-[6-(4-hydroxy-phenyl)-pyrazin-2-yl]-benzamide] | < 1 |
| CN(C)CCNC(=O)c1cccc(-c2cncc(-c3ccc(CO)cc3)n2)c1 [X-005, N-(2-Dimethylamino-ethyl)-3-[6-(4-hydroxymethyl-phenyl)-pyrazin-2-yl]-benzamide] | < 1 |
| CC(=O)Nc1cccc(-c2cncc(-c3cccc(C(=O)NCCCN(C)C)c3)n2)c1 [X-006, 3-[6-(3-Acetylamino-phenyl)-pyrazin-2-yl]-N-(3-dimethylamino-propyl)-benzamide] | < 1 |
| CN1CCN(C(=O)c2cccc(-c3cnc(N)c(-c4cccc5c4oc4ccccc45)n3)c2)CC1 [X-008, [3-(5-Amino-6-dibenzofuran-4-yl-pyrazin-2-yl)-phenyl]-(4-methyl-piperazin-1-yl)-methanone] | < 1 |
| COc1cc(-c2cncc(-c3cccc(C(=O)N4CCNCC4)c3)n2)ccc1O [X-010, {3-[6-(4-Hydroxy-3-methoxy-phenyl)-pyrazin-2-yl]-phenyl}-piperazin-1-yl-methanone] | 1 to 10 |
| CN(C)CCNC(=O)c1cccc(-c2cnc(N)c(-c3cccc4c3oc3ccccc34)n2)c1 [X-012, 3-(5-Amino-6-dibenzofuran-4-yl-pyrazin-2-yl)-N-(2-dimethylamino-ethyl)-benzamide] | < 1 |
| CN(C)CCNC(=O)c1cccc(-c2cncc(-c3cccc4c3oc3ccccc34)n2)c1 [X-013, 3-(6-Dibenzofuran-4-yl-pyrazin-2-yl)-N-(2-dimethylamino-ethyl)-benzamide] | < 1 |
| COc1ccccc1-c1nc(-c2cccc(C(=O)NCCN(C)C)c2)cnc1N [X-015, 3-[5-Amino-6-(2-methoxy-phenyl)-pyrazin-2-yl]-N-(2-dimethylamino-ethyl)-benzamide] | 1 to 10 |
| COc1cc(-c2nc(-c3cccc(C(=O)NCCN(C)C)c3)cnc2N)ccc1F [X-016, 3-[5-Amino-6-(4-fluoro-3-methoxy-phenyl)-pyrazin-2-yl]-N-(2-dimethylamino-ethyl)-benzamide] | < 1 |
| COc1cc(-c2cncc(-c3cccc(C(N)=O)c3)n2)ccc1O [X-018, 3-[6-(4-Hydroxy-3-methoxy-phenyl)-pyrazin-2-yl]-benzamide] | 1 to 10 |
| COc1cc(-c2cncc(-c3cccc(C(=O)NC4CCN(C)CC4)c3)n2)ccc1O [X-019, 3-[6-(4-Hydroxy-3-methoxy-phenyl)-pyrazin-2-yl]-N-(1-methyl-piperidin-4-yl)-benzamide] | < 1 |
| COc1cc(-c2cncc(-c3cccc(C(=O)NCCN)c3)n2)ccc1O [X-021, N-(2-Amino-ethyl)-3-[6-(4-hydroxy-3-methoxy-phenyl)-pyrazin-2-yl]-benzamide] | < 1 |
| CCN(CC)CCNC(=O)c1cccc(-c2cncc(-c3ccc(O)c(OC)c3)n2)c1 [X-022, N-(2-Diethylamino-ethyl)-3-[6-(4-hydroxy-3-methoxy-phenyl)-pyrazin-2-yl]-benzamide] | < 1 |
| CN(C)CCNC(=O)c1cccc(-c2cnc(N)c(-c3ccc4cc(O)ccc4c3)n2)c1 [X-023, 3-[5-Amino-6-(6-hydroxy-naphthalen-2-yl)-pyrazin-2-yl]-N-(2-dimethylamino-ethyl)-benzamide] | < 1 |
| COc1cc(-c2nc(-c3cccc(C(=O)NCCN(C)C)c3)cnc2N)ccn1 [X-024, 3-[5-Amino-6-(2-methoxy-pyridin-4-yl)-pyrazin-2-yl]-N-(2-dimethylamino-ethyl)-benzamide] | < 1 |
| COc1ccc2cc(-c3nc(-c4cccc(C(=O)NCCN(C)C)c4)cnc3N)ccc2c1 [X-025, 3-[5-Amino-6-(6-methoxy-naphthalen-2-yl)-pyrazin-2-yl]-N-(2-dimethylamino-ethyl)-benzamide] | < 1 |
| COc1cccc(-c2nc(-c3cccc(C(=O)NCCN(C)C)c3)cnc2N)c1 [X-026, 3-[5-Amino-6-(3-methoxy-phenyl)-pyrazin-2-yl]-N-(2-dimethylamino-ethyl)-benzamide] | < 1 |
| CCN(CC)CCNC(=O)c1cccc(-c2cnc(N)c(-c3cccc(OC)c3)n2)c1 [X-027, 3-[5-Amino-6-(3-methoxy-phenyl)-pyrazin-2-yl]-N-(2-diethylamino-ethyl)-benzamide] | < 1 |
